Reference: article PMC3969104 (Journal of Medicinal Chemistry, 2014)

What was measured:
[1] = system: elav-Gal4GS > UAS-hTDP-43 transgenic flies; assay: Lifespan of transgenic hTDP-43 Drosophila; assay type: in vivo; settings: 100 nM compound, log rank test versus DMSO
[2] = target: CDC like kinase 1 (CLK1) (Homo sapiens, UniProt P49759); assay: KinomeScan screening, CLK1; assay type: binding; settings: 10 μM
[3] = target: CK-1γ2 (Homo sapiens, UniProt P78368); assay: KinomeScan screening, CK-1γ2; assay type: binding; settings: 10 μM
Sequence of CK-1γ2 (P78368 whole entry): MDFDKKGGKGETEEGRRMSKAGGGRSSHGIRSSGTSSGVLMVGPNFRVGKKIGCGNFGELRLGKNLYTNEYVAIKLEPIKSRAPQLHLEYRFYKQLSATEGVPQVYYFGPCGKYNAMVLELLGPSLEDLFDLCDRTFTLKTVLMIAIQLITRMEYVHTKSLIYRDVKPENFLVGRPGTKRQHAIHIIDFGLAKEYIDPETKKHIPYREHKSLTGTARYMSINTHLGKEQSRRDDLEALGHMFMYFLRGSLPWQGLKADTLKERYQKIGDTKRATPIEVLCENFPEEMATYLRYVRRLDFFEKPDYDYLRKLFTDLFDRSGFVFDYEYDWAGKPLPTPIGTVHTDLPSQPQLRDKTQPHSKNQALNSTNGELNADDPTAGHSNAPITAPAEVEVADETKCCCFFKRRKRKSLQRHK

[4] = target: fms-related tyrosine kinase 1 (FLT1) (Homo sapiens, UniProt P17948); assay: KinomeScan screening, FLT1; assay type: binding; settings: 10 μM
Sequence of fms-related tyrosine kinase 1 (FLT1) (P17948 27-1338): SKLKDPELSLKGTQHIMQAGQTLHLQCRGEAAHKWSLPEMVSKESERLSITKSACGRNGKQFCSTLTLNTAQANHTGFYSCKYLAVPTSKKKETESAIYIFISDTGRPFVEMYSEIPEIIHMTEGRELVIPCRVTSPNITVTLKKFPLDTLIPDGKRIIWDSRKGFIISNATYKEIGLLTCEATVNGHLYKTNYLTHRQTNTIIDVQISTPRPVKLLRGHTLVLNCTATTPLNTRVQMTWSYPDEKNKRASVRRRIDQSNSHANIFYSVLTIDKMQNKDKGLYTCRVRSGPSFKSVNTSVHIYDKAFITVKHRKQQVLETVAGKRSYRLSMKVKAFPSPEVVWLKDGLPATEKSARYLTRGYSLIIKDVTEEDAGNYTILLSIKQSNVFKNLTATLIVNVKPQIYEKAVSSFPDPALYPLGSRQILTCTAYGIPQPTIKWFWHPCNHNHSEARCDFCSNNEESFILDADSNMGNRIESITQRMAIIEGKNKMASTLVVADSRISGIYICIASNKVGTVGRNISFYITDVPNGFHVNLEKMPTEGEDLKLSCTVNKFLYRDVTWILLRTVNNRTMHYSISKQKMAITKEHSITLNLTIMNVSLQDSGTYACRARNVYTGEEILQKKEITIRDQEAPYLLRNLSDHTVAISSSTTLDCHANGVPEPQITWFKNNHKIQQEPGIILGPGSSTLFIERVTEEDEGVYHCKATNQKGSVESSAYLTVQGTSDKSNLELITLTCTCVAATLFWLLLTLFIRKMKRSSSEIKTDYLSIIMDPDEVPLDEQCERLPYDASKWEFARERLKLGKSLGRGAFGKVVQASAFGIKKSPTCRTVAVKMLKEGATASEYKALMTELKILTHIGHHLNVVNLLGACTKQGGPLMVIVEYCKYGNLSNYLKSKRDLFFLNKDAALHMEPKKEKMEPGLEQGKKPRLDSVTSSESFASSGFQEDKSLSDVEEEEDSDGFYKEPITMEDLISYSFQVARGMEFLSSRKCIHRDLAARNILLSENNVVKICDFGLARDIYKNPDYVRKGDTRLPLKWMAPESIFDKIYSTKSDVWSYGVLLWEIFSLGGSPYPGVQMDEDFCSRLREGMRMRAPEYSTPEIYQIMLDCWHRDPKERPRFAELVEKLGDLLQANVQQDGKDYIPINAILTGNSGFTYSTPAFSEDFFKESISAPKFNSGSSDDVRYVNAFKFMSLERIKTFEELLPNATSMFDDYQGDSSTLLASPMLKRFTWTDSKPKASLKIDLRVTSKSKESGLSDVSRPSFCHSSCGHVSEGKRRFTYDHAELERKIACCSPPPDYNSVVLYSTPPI

[5] = target: CDC like kinase 4 (CLK4) (Homo sapiens, UniProt Q9HAZ1); assay: KinomeScan screening, CLK4; assay type: binding; settings: 10 μM
Sequence of CDC like kinase 4 (CLK4) (Q9HAZ1 whole entry): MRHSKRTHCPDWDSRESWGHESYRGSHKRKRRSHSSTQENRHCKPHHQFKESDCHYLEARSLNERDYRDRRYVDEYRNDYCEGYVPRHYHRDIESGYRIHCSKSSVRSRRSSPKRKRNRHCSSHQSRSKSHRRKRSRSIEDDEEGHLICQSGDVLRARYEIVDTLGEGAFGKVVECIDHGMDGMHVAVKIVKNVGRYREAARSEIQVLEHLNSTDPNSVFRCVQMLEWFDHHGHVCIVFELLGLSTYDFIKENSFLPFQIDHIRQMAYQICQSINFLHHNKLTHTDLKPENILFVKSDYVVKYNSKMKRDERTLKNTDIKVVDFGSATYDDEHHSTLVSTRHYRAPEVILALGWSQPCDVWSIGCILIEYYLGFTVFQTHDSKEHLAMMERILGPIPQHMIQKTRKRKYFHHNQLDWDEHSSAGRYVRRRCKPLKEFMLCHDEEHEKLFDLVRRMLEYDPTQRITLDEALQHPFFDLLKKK

[6] = system: panel of 456 protein kinases; assay: KinomeScan selectivity screening on a kinase panel; assay type: binding, human; settings: 10 μM, 456 kinases; number of kinases bound divided by distinct kinases tested
[7] = target: CK-1ε (Homo sapiens, UniProt P49674); assay: KinomeScan screening, CK-1ε; assay type: binding; settings: 10 μM
Sequence of CK-1ε (P49674 whole entry): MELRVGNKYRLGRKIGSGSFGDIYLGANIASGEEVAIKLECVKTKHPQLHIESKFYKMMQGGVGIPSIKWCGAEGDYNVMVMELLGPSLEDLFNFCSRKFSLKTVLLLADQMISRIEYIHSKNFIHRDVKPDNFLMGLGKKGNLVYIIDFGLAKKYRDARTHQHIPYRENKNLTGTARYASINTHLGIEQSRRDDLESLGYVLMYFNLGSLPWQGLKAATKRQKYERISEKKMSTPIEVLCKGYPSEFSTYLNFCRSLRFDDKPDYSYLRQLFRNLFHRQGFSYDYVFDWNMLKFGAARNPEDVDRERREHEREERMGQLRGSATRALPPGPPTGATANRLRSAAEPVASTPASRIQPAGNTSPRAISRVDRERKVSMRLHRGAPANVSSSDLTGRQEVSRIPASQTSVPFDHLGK

[8] = target: T1, myosin light chain kinase 3 (MLCK) (Homo sapiens, UniProt Q32MK0); assay: KinomeScan screening, MLCK; assay type: binding; settings: 10 μM
T1 sequence (Q32MK0 1-819): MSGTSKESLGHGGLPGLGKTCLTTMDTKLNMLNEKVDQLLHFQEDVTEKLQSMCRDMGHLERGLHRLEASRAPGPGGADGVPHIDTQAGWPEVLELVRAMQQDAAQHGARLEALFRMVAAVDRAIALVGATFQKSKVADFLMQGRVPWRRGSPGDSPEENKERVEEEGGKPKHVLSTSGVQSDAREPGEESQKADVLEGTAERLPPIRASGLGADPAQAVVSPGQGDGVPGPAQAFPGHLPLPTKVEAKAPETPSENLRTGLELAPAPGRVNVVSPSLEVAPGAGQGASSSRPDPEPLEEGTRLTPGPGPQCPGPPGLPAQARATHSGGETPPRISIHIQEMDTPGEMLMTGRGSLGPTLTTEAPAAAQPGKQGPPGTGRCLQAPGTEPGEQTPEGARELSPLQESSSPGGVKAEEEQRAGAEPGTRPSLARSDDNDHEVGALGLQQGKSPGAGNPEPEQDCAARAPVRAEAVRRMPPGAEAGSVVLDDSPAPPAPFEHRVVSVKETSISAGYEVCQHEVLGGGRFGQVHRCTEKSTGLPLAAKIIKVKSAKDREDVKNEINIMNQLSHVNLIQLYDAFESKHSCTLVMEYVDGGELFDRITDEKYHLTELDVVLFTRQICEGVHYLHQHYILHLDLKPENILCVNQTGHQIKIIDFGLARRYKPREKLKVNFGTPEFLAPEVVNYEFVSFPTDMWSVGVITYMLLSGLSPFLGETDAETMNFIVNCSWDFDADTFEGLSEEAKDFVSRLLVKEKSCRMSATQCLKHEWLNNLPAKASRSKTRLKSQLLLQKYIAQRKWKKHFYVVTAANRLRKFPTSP

[9] = target: platelet-derived growth factor receptor (PDGFRB) (Homo sapiens, UniProt P09619); assay: KinomeScan screening, PDGFRB; assay type: binding; settings: 10 μM
Sequence of platelet-derived growth factor receptor (PDGFRB) (P09619 33-1106): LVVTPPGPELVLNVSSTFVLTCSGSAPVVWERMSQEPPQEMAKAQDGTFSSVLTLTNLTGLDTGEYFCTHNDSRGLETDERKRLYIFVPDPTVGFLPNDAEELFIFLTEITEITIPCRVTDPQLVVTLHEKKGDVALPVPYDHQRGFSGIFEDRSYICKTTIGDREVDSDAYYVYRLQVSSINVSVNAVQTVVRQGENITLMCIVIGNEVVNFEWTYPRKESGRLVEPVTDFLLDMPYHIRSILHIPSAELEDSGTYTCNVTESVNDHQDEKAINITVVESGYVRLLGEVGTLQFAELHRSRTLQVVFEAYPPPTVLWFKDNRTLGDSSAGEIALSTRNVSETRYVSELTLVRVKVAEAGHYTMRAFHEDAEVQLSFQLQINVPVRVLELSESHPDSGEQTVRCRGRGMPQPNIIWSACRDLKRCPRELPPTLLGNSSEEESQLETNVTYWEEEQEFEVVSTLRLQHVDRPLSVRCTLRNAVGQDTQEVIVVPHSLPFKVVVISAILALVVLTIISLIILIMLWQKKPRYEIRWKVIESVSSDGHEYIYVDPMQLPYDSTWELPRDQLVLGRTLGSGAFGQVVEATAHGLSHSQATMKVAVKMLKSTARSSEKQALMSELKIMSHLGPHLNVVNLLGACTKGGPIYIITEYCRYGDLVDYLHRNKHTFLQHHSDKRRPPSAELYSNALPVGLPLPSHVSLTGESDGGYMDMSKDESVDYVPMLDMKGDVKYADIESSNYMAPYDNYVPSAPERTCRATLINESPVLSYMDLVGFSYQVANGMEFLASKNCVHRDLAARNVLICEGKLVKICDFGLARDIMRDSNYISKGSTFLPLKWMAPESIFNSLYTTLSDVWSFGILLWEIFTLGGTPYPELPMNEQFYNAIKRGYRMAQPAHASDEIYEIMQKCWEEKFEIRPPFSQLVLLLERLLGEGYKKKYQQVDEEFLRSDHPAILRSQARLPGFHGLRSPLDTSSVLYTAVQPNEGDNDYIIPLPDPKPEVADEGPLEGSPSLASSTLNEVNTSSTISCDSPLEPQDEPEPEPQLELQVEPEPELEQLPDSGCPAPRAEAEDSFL

[10] = target: CK-1α1 (Homo sapiens, UniProt P48729); assay: KinomeScan screening, CK-1α1; assay type: binding; settings: 10 μM
Sequence of CK-1α1 (P48729 whole entry): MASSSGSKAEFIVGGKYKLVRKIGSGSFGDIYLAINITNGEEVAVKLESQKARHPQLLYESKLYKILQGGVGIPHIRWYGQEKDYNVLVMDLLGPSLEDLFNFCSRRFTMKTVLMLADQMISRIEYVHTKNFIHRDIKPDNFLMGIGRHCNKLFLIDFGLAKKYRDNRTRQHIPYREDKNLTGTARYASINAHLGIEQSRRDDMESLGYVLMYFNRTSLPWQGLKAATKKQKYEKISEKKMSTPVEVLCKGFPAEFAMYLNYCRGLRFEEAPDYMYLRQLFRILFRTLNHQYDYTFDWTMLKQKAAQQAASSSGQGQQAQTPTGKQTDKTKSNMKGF

[11] = system: TDP-43 phosphorylation (pS409/410) in HEK293 cells; assay: Ethacrynic acid induced TDP-43 phosphorylation in HEK293 cells
[12] = target: DYRK1A (Homo sapiens, UniProt Q13627); assay: KinomeScan screening, DYRK1A; assay type: binding; settings: 10 μM
[13] = target: T2, CK-1δ (Homo sapiens, UniProt P48730); assay: KinomeScan screening, CK-1δ; assay type: binding; settings: 10 μM
T2 sequence (P48730 whole entry): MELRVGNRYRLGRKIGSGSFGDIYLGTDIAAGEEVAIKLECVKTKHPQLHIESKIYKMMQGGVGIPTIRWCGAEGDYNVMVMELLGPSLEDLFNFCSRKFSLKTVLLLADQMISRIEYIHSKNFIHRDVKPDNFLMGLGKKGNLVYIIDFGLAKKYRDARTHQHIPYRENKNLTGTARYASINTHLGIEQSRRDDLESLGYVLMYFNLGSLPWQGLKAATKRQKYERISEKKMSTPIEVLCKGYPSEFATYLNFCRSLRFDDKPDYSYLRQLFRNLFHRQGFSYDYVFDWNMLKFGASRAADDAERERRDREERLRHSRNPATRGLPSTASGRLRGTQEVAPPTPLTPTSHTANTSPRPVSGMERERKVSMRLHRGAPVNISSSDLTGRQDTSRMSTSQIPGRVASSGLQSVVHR

[14] = target: T2, CK-1δ; assay: Kinetic studies on CK-1δ; assay type: biochemical; settings: ATP 1 to 50 μM, casein 12.5 μM, double reciprocal plot
[15] = target: DYRK1B (Homo sapiens, UniProt Q9Y463); assay: KinomeScan screening, DYRK1B; assay type: binding; settings: 10 μM
[16] = PAMPA-BBB permeability assay; settings: PAMPA vehicle PBS:EtOH (70:30)
[17] = target: T2, CK-1δ; assay type: biochemical
[18] = system: 290 kinases panel; settings: cited from earlier work
[19] = system: amyotrophic lateral sclerosis (ALS); settings: ALS patients; cited from earlier work
[20] = HEK293, 1.5 h pretreatment, 150 μM ethacrynic acid

Sequence of CDC like kinase 1 (CLK1) (P49759 whole entry): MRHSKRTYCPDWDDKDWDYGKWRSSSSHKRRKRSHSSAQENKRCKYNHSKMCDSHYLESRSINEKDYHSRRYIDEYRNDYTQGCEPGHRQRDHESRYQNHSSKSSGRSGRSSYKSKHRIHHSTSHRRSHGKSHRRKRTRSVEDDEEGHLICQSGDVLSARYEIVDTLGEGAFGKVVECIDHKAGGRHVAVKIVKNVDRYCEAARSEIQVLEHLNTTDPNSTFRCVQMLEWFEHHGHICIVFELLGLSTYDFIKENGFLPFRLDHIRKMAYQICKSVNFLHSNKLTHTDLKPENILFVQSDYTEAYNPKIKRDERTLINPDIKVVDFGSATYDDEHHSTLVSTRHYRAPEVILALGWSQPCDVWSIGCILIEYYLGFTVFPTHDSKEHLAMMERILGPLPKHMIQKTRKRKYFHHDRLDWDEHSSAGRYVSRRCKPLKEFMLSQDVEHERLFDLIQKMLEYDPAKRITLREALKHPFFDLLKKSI

In the case of O=C(Cc1ccc(Cl)cc1)Oc1nc2ccccc2s1 [Compound 9, (Benzothiazol-2-yl)-2-(4-chlorophenyl)acetate], the “effect on fly lifespan” value [1] is reported as “did not significantly modify fly longevity”.
In the case of O=C(Cc1cccc(Cl)c1)Nc1nc2ccc(C(F)(F)F)cc2s1 [Compound 20, 2-(3-Chlorophenyl)-N-(6-(trifluoromethyl)benzothiazol-2-yl)acetamide], the “inhibition of CLK1” value [2] is reported as “inhibited”, the “inhibition of CK-1γ2” value [3] is reported as “inhibited” and the “inhibition of FLT1” value [4] is reported as “inhibited”. The “inhibition of CLK4” value [5] was “inhibited”, the “selectivity score (S score)” value [6] was 0.04 and the “effect on fly lifespan” value [1] was “significantly increased”. The “inhibition of CK-1ε” value [7] was “inhibited”, the “inhibition of MLCK” value [8] was “inhibited” and the “inhibition of PDGFRB” value [9] was “inhibited”. For the same compound, the “inhibition of CK-1α1” value [10] was “inhibited”, the “concentration with inhibition of TDP-43 phosphorylation” value [11, 20] was “above 80 μM” and the “inhibition of DYRK1A” value [12] was “inhibited”. The “inhibition of CK-1δ” value [13] was “inhibited”, the “mechanism of CK-1δ inhibition with respect to ATP” value (shortened to “mechanism of CK-1δ inhibition”) [14] was “ATP competitive inhibition” and the “inhibition of DYRK1B” value [15] was “inhibited”.
With O=C(Cc1ccccc1Cl)Nc1nc2ccc(C(F)(F)F)cc2s1 [Compound 24, 2-(2-Chlorophenyl)-N-(6-(trifluoromethyl)benzothiazol-2-yl)acetamide] the “inhibition of CLK1” value [2] was “inhibited”, the “inhibition of CK-1γ2” value [3] was “inhibited” and the “solubility in the assay vehicle” value [16] was “low solubility”. The “inhibition of FLT1” value [4] was “inhibited”, the “inhibition of CLK4” value [5] was “inhibited” and the “effect on fly lifespan” value [1] was “significantly increased”. The “inhibition of CK-1ε” value [7] was “inhibited”, the “inhibition of MLCK” value [8] was “inhibited” and the “inhibition of PDGFRB” value [9] was “inhibited”. The “inhibition of CK-1α1” value [10] was “inhibited”, the “concentration with moderate inhibition of TDP-43 phosphorylation” value [11, 20] was at least 1.25 µM and the “inhibition of DYRK1A” value [12] was “inhibited”. For the same compound, the “inhibition of CK-1δ” value [13] was “inhibited”, the “mechanism of CK-1δ inhibition” value [14] was “ATP competitive inhibition” and the “inhibition of DYRK1B” value [15] was “inhibited”.
In the case of COc1ccccc1CC(=O)Nc1nc2ccc(C(F)(F)F)cc2s1 [Compound 34, N-(6-(Trifluoromethyl)benzothiazol-2-yl)-2-(2-methoxyphenyl)acetamide], the “concentration with inhibition of TDP-43 phosphorylation” value [11, 20] is reported as “above 80 μM” and the “mechanism of CK-1δ inhibition” value [14] is reported as “ATP competitive inhibition”.
With COc1ccc2nc(NC(=O)Cc3ccccc3OC)sc2c1 [Compound 35, N-(6-Methoxybenzothiazol-2-yl)-2-(2-methoxyphenyl)acetamide] the “fold less potent than 20 and 24 as CK-1δ inhibitor” value [17] was 100 fold and the “effect on fly lifespan” value [1] was “significantly increased”.
With COc1cccc(CC(=O)Nc2nc3ccc(C(F)(F)F)cc3s2)c1 [Compound 38, N-(6-(Trifluoromethyl)benzothiazol-2-yl)-2-(3-methoxyphenyl)acetamide] the “concentration giving significant reduction of TDP-43 phosphorylation” value [11, 20] was 5 µM.
With O=C(Cc1cccc(C(F)(F)F)c1)Nc1nc2ccc(C(F)(F)F)cc2s1 [Compound 41, N-(6-(Trifluoromethyl)benzothiazol-2-yl)-2-(3-(trifluoromethyl)phenyl)acetamide] the “fold reduction in TDP-43 phosphorylation” value ([11]; HEK293, by 10 μM inhibitor) was “greater than 2 fold”.
For O=C(Cc1ccccc1)Nc1nc2ccc(C(F)(F)F)cc2s1 [Compound 46, N-(6-(Trifluoromethyl)benzothiazol-2-yl)-2-phenylacetamide], the “concentration with nearly complete absence of TDP-43 phosphorylation” value ([11]; HEK293, 1.5 h pretreatment, 150 μM ethacrynic acid, range 1.25-160 μM) was at least 2.5 µM.
For COc1cc(OC)c(C=C2C(=O)Nc3ccccc32)c(OC)c1 [IC261, reference compound], the “mechanism of CK-1δ inhibition” value [14] was “ATP competitive inhibitor”.
For CS(=O)(=O)CCNCc1ccc(-c2ccc3ncnc(Nc4ccc(OCc5cccc(F)c5)c(Cl)c4)c3c2)o1 [Lapatinib], the S score [18] is given as 0.010.
In the case of Nc1nc2ccc(OC(F)(F)F)cc2s1 [Riluzole], the extension of survival [19] is given as 2–3 months.
In the case of CCN(CC)CCNC(=O)c1c(C)[nH]c(/C=C2\C(=O)Nc3ccc(F)cc32)c1C [Sunitinib], the S score [18] is given as 0.57.
